In patent US10487068B2, “Pyridazine derivatives as RORc modulators” (Genentech, Inc., priority 2015, dated 2019):

The compounds below were run against T1, RORc ligand binding domain (Homo sapiens, UniProt P51449) (assay: In Vitro RORc Ligand Binding Assay). Conditions: RORc IC50, radioligand 25-[3H]hydroxycholesterol 6 nM; 0.6 ug/mL RORc receptor; 3 h at 25° C.
T1 sequence (P51449 269-508 limits assumed): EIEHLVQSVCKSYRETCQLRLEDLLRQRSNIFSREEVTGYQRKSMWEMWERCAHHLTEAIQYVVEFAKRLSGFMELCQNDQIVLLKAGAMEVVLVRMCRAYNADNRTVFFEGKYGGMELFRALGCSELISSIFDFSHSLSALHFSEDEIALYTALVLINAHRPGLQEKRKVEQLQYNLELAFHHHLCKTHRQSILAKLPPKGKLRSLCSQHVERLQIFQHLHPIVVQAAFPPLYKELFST

SMILES	IC50
CC1(C)[C@H]2CC[C@]1(c1cncc(NC(=O)C3COC3)n1)c1nnc(-c3c(F)cccc3F)cc12 [Example 103, N-(6-((5R,8S)-3-(2,6-difluorophenyl)-9,9-dimethyl-5,6,7,8-tetrahydro-5,8-methanocinnolin-8-yl)pyrazin-2-yl)oxetane-3-carboxamide]	29.1 nM
CC1(C)[C@H]2CC[C@]1(c1cncc(-c3nnc[nH]3)n1)c1nnc(-c3c(F)cccc3F)cc12 [Example 104]	25.9 nM
Cc1nnc(-c2cncc([C@@]34CC[C@@H](c5cc(-c6c(F)cccc6F)nnc53)C4(C)C)n2)[nH]1 [Example 105]	30.9 nM
CC1(C)[C@H]2CC[C@]1(c1ccnc(NS(C)(=O)=O)n1)c1nnc(-c3c(F)cccc3F)cc12 [Example 111]	41.4 nM
Cc1coc(-c2cncc([C@@]34CC[C@@H](c5cc(-c6c(F)cccc6F)nnc53)C4(C)C)n2)n1 [Example 117, 2-(6-((5R,8S)-3-(2,6-difluorophenyl)-9,9-dimethyl-5,6,7,8-tetrahydro-5,8-methanocinnolin-8-yl)pyrazin-2-yl)-4-methyloxazole]	7.6 nM
Cc1ncc(-c2cncc([C@@]34CC[C@@H](c5cc(-c6c(F)cccc6F)nnc53)C4(C)C)n2)o1 [Example 118, 5-(6-((5R,8S)-3-(2,6-difluorophenyl)-9,9-dimethyl-5,6,7,8-tetrahydro-5,8-methanocinnolin-8-yl)pyrazin-2-yl)-2-methyloxazole]	13 nM
Cc1nc(-c2cncc([C@@]34CC[C@@H](c5cc(-c6c(F)cccc6F)nnc53)C4(C)C)n2)co1 [Example 120, 4-(6-((5R,8S)-3-(2,6-difluorophenyl)-9,9-dimethyl-5,6,7,8-tetrahydro-5,8-methanocinnolin-8-yl)pyrazin-2-yl)-2-methyloxazole]	8.6 nM
CC1(C)[C@H]2CC[C@]1(c1cncc(-c3nnc(CO)[nH]3)n1)c1nnc(-c3c(F)cccc3F)cc12 [Example 121, (5-(6-((5R,8S)-3-(2,6-difluorophenyl)-9,9-dimethyl-5,6,7,8-tetrahydro-5,8-methanocinnolin-8-yl)pyrazin-2-yl)-4H-1,2,4-triazol-3-yl)methanol]	27.2 nM
CC1(C)[C@H]2CC[C@]1(c1ccnc(NC(CO)CO)n1)c1nnc(-c3c(F)cccc3F)cc12 [Example 122]	38.6 nM
CC1(C)[C@H]2CC[C@]1(c1cncc(-c3n[nH]c(=O)[nH]3)n1)c1nnc(-c3c(F)cccc3F)cc12 [Example 123, 3-(6-((5R,8S)-3-(2,6-difluorophenyl)-9,9-dimethyl-5,6,7,8-tetrahydro-5,8-methanocinnolin-8-yl)pyrazin-2-yl)-1H-1,2,4-triazol-5(4H)-one]	32.5 nM
CC1(C)[C@H]2CC[C@]1(c1cncc(-c3noc(=O)[nH]3)n1)c1nnc(-c3c(F)cccc3F)cc12 [Example 125, 3-(6-((5R,8S)-3-(2,6-difluorophenyl)-9,9-dimethyl-5,6,7,8-tetrahydro-5,8-methanocinnolin-8-yl)pyrazin-2-yl)-1,2,4-oxadiazol-5(4H)-one]	20.9 nM
C[C@H](O)CNC(=O)c1cncc([C@@]23CC[C@@H](c4cc(-c5ccccc5F)nnc42)C3(C)C)n1 [Example 126, 6-((5R,8S)-3-(2-fluorophenyl)-9,9-dimethyl-5,6,7,8-tetrahydro-5,8-methanocinnolin-8-yl)-N-((S)-2-hydroxypropyl)pyrazine-2-carboxamide]	45.6 nM
CC1(C)[C@H]2CC[C@]1(c1cnnc(N)n1)c1nnc(-c3c(F)cccc3F)cc12 [Example 127, 5-((5R,8S)-3-(2,6-difluorophenyl)-9,9-dimethyl-5,6,7,8-tetrahydro-5,8-methanocinnolin-8-yl)-1,2,4-triazin-3-amine]	109 nM
CC(C)(O)c1cncc([C@@]23CC[C@@H](c4cc(-c5c(F)cccc5F)nnc42)C3(C)C)n1 [Example 128, 2-(6-((5R,8S)-3-(2,6-difluorophenyl)-9,9-dimethyl-5,6,7,8-tetrahydro-5,8-methanocinnolin-8-yl)pyraizn-2-yl)propan-2-ol]	21.5 nM
CC1(C)[C@H]2CC[C@]1(c1cncc(CNC(=O)CO)n1)c1nnc(-c3c(F)cccc3F)cc12 [Example 129, N-((6-((5R,8S)-3-(2,6-difluorophenyl)-9,9-dimethyl-5,6,7,8-tetrahydro-5,8-methanocinnolin-8-yl)pyrazin-2-yl)methyl)-2-hydroxyacetamide]	56.7 nM
CC1(C)[C@H]2CC[C@]1(c1cncc(CNS(C)(=O)=O)n1)c1nnc(-c3c(F)cccc3F)cc12 [Example 134, N-((6-((5R,8S)-3-(2,6-difluorophenyl)-9,9-dimethyl-5,6,7,8-tetrahydro-5,8-methanocinnolin-8-yl)pyrazin-2-yl)methyl)methanesulfonamide]	18.8 nM

Results, then the compound that gave them:

IC50	SMILES
31.1 nM	CC1(C)[C@H]2CC[C@]1(c1cncc(C(=O)NCC3(O)COC3)n1)c1nnc(-c3c(F)cccc3F)cc12 [Example 106, 6-((5R,8S)-3-(2,6-difluorophenyl)-9,9-dimethyl-5,6,7,8-tetrahydro-5,8-methanocinnolin-8-yl)-N-((3-hydroxyoxetan-3-yl)methyl)pyrazine-2-carboxamide]
69.5 nM	CC1(C)[C@H]2CC[C@]1(c1cncc(C(=O)NC[C@@H](O)CO)n1)c1nnc(-c3c(F)cccc3F)cc12 [Example 107, 6-((5R,8S)-3-(2,6-difluorophenyl)-9,9-dimethyl-5,6,7,8-tetrahydro-5,8-methanocinnolin-8-yl)-N-((R)-2,3-dihydroxypropyl)pyrazine-2-carboxamide]
47.5 nM	CC1(C)[C@H]2CC[C@]1(c1cncc(C(=O)NC[C@H](O)CO)n1)c1nnc(-c3c(F)cccc3F)cc12 [Example 108, 6-((5R,8S)-3-(2,6-difluorophenyl)-9,9-dimethyl-5,6,7,8-tetrahydro-5,8-methanocinnolin-8-yl)-N-((S)-2,3-dihydroxypropyl)pyrazine-2-carboxamide]
19.8 nM	C[C@@H](O)CNC(=O)c1cncc([C@]23CC[C@H](c4cc(-c5c(F)cccc5F)nnc42)C3(C)C)n1 [Example 109, 6-((5S,8R)-3-(2,6-difluorophenyl)-9,9-dimethyl-5,6,7,8-tetrahydro-5,8-methanocinnolin-8-yl)-N-((R)-2-hydroxypropyl)pyrazine-2-carboxamide]
51.4 nM	CC1(C)[C@H]2CC[C@]1(c1cncc(C(=O)NCCS(C)(=O)=O)n1)c1nnc(-c3c(F)cccc3F)cc12 [Example 110, 6-((5R,8S)-3-(2,6-difluorophenyl)-9.9-dimethyl-5,6,7,8-tetrahydro-5,8-methanocinnolin-8-yl)-N-(2-(methylsulfonyl)ethyl)pyrazine-2-carboxamide]
13.7 nM	CC1(C)[C@H]2CC[C@]1(c1cccc(NC(=O)CO)n1)c1nnc(-c3c(F)cccc3F)cc12 [Example 112, N-(6-((5R,8S)-3-(2,6-difluorophenyl)-9,9-dimethyl-5,6,7,8-tetrahydro-5,8-methanocinnolin-8-yl)pyridin-2-yl)-2-hydroxyacetamide]
27.6 nM	CC1(C)[C@H]2CC[C@]1(c1ccnc(C(N)=O)n1)c1nnc(-c3c(F)cccc3F)cc12 [Example 113]
38.8 nM	C[C@H](O)CNC(=O)c1nccc([C@@]23CC[C@@H](c4cc(-c5c(F)cccc5F)nnc42)C3(C)C)n1 [Example 114]
63.2 nM	C[C@@H](O)CNC(=O)c1nccc([C@@]23CC[C@@H](c4cc(-c5c(F)cccc5F)nnc42)C3(C)C)n1 [Example 115]
15.2 nM	CC1(C)[C@H]2CC[C@]1(c1cccc(CNC(=O)CO)n1)c1nnc(-c3c(F)cccc3F)cc12 [Example 116, N-((6-((5R,8S)-3-(2,6-difluorophenyl)-9,9-dimethyl-5,6,7,8-tetrahydro-5,8-methanocinnolin-8-yl)pyridin-2-yl)methyl)-2-hydroxyacetamide]
58.9 nM	CC1(C)[C@H]2CC[C@]1(c1cncc(C(=O)NC(CO)CO)n1)c1nnc(-c3c(F)cccc3F)cc12 [Example 119, 6-((5R,8S)-3-(2,6-difluorophenyl)-9,9-dimethyl-5,6,7,8-tetrahydro-5,8-methanocinnolin-8-yl)-N-(1,3-dihydroxypropan-2-yl)pyrazine-2-carboxamide]
50.8 nM	CC1(C)[C@H]2CC[C@]1(c1cncc(C(=O)NCC3(O)CC3)n1)c1nnc(-c3c(F)cccc3F)cc12 [Example 124, 6-((5R,8S)-3-(2,6-difluorophenyl)-9,9-dimethyl-5,6,7,8-tetrahydro-5,8-methanocinnolin-8-yl)-N-((1-hydroxycyclopropyl)methyl)pyrazine-2-carboxamide]
55.3 nM	CC1(C)[C@H]2CC[C@]1(c1cccc(C(=O)NC(CO)CO)n1)c1nnc(-c3c(F)cccc3F)cc12 [Example 130, 6-((5R,8S)-3-(2,6-difluorophenyl)-9,9-dimethyl-5,6,7,8-tetrahydro-5,8-methanocinnolin-8-yl)-N-(1,3-dihydroxypropan-2-yl)picolinamide]
44.4 nM	CC1(C)[C@H]2CC[C@]1(c1cccc(C(=O)NCC3(O)COC3)n1)c1nnc(-c3c(F)cccc3F)cc12 [Example 131, 6-((5R,8S)-3-(2,6-difluorophenyl)-9,9-dimethyl-5,6,7,8-tetrahydro-5,8-methanocinnolin-8-yl)-N-((3-hydroxyoxetan-3-yl)methyl)picolinamide]
33.2 nM	CC1(C)[C@H]2CC[C@]1(c1ccnc(NCC3(O)COC3)n1)c1nnc(-c3c(F)cccc3F)cc12 [Example 132]
59.2 nM	CC(=O)NCc1cncc([C@@]23CC[C@@H](c4cc(-c5c(F)cccc5F)nnc42)C3(C)C)n1 [Example 133, N-((6-((5R,8S)-3-(2,6-difluorophenyl)-9,9-dimethyl-5,6,7,8-tetrahydro-5,8-methanocinnolin-8-yl)pyrazin-2-yl)methyl)acetamide]
